In ChEMBL document CHEMBL1201862, “PubChem BioAssay data set” (2004):
Active and inactive are the calls of the source.

Experiments:
[1] = target: T1, Corticotropin-releasing factor receptor 2/Corticotropin-releasing factor-binding protein (Homo sapiens, UniProt P24387+Q13324); assay: activators of CRF receptor 2 with binding protein – uHTS hits, confirmation (AID 602473); type: functional; conditions: read-out: EC50_Mean
T1 sequence (Q13324 whole entry): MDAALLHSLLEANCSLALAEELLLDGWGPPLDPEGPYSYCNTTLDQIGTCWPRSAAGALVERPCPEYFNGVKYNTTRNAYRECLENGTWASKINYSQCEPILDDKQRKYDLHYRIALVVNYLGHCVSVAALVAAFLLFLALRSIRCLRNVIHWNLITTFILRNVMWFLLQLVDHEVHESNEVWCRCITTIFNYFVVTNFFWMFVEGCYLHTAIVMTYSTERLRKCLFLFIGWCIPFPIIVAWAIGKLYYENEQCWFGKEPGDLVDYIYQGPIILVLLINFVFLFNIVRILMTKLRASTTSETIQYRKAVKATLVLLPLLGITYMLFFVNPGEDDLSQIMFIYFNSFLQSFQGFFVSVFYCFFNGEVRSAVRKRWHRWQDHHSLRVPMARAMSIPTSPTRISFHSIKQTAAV
T1 sequence (P24387 whole entry): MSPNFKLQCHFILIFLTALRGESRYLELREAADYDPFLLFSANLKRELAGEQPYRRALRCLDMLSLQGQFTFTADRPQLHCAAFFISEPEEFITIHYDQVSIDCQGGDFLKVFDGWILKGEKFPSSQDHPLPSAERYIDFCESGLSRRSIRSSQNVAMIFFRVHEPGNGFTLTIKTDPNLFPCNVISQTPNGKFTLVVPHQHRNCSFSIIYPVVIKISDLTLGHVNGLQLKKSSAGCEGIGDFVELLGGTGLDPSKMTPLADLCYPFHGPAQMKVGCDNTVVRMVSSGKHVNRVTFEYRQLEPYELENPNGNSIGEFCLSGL

Aminopeptidase N = target: T2, Aminopeptidase N (Plasmodium falciparum FcB1/Columbia, UniProt O96935); assay: malaria alanyl aminopeptidase activity blockers – biochemical, fluorogenic H-Leu-NHMec substrate, 1536-well (AID 1445); set-up: species or system Plasmodium falciparum 3D7, 3D7
T2 sequence (O96935 whole entry): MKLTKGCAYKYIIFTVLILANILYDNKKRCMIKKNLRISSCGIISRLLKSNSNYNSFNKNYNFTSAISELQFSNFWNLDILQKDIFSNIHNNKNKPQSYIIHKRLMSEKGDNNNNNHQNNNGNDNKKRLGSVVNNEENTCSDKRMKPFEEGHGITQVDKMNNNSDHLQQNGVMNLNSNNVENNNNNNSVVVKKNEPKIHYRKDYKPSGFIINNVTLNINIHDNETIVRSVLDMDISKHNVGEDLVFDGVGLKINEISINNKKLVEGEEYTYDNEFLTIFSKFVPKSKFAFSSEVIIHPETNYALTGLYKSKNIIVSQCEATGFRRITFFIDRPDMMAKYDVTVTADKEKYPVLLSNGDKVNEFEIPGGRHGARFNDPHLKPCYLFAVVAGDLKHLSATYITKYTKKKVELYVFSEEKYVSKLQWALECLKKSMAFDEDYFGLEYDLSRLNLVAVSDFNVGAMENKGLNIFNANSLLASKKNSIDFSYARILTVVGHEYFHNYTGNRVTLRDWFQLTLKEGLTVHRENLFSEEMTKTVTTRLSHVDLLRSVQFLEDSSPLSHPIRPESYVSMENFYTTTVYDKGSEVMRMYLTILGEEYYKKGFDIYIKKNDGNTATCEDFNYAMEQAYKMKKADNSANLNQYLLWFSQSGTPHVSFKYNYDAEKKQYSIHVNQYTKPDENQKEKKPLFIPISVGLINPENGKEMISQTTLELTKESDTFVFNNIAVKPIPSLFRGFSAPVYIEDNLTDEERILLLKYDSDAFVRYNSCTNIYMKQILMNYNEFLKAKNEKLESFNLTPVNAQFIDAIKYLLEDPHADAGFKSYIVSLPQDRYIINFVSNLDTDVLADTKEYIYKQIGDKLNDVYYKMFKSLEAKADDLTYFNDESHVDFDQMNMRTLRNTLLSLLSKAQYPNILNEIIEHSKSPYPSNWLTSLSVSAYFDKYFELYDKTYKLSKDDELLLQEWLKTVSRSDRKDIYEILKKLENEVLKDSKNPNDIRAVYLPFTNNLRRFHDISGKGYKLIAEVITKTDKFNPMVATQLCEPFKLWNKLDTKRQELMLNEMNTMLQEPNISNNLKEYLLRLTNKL

[2] = target: T1, Corticotropin-releasing factor receptor 2/Corticotropin-releasing factor-binding protein; assay: Dose Response confirmation of uHTS hits for small molecule antagonists of the CRF-binding protein and CRF-R2 receptor complex.; type: functional; conditions: read-out: IC50_Mean
Kallikrein-7 = Kallikrein-7 (Homo sapiens, UniProt P49862); assay: Fluorescence Intensity-based biochemical primary high throughput dose response assay to identify activators of kallikrein-7 (K7) zymogen.
Kallikrein-7, sequence (P49862 whole entry): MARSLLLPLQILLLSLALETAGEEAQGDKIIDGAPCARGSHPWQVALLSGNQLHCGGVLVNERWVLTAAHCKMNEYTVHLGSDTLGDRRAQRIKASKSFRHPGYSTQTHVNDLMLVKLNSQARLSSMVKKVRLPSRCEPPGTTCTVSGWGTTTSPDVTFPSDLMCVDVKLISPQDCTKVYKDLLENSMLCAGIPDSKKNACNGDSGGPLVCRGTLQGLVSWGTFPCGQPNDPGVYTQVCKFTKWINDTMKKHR

[3] = reduction of Shn3 3'UTR-driven luciferase in osteoblasts – cell-based, Clone20 osteoblasts, firefly luciferase, cherry-picked, dose response (AID 624132); type: functional;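 note: firefly luciferase luminescence from reporter carrying the Shn3 3'UTR in osteoblasts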
[4] = non-specific 3'UTR reporter inhibition in Clone20-Shn3RL – cell-based, Renilla luciferase, cherry-picked, counter-screen for Shn3 inhibitor project, dose response (AID 624133); type: functional
[5] = loss of viability in HepG2 cells – cell-based, CellTiter-Glo, cherry-picked, cytotoxicity control for Shn3 inhibitor project, dose response (AID 624134); type: functional
[6] = blockade of melanocortin 4 receptor signaling – cell-based, plate reader, cherry pick, counter-screen for LGR2 antagonist project, dose response (AID 743444); type: functional;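 note: transfected HEK 293 cells stimulated with alpha-MSH peptide; potency of inhibitors of the alpha-MSH evoked signal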
[7] = toxicity toward HepG2 liver cells – cell-based, plate reader, cherry-pick, antagonist series, cytotoxicity control, dose response (AID 743416); type: functional
[8] = A549 cell cytotoxicity, dose response, cytotoxicity control, plate reader, cherry-pick, antagonist series (AID 743412); type: functional, cell-based
[9] = viability loss in HEK293 cells – cell-based, plate reader, cherry-picked samples, cytotoxicity control, dose response (AID 743446); type: functional
[10] = blockers of bursicon-stimulated LGR2 cAMP reporter – cell-based, HEK293, CRE-luciferase reporter, cherry pick, set 2, dose response (AID 743343); type: functional;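 note: transfected cells were stimulated with diluted bursicon conditioned medium after compound addition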
[11] = HGIII-sPLA2 enzyme inhibition potency – biochemical, QFRET, IC50, dose response (AID 743457);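 note: green fluorescence rise as the enzyme cleaves BODIPY PC-A2 in liposomes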
[12] = target: T3, Histone-lysine N-methyltransferase NSD2 (Homo sapiens, UniProt O96028); type: biochemical
T3 sequence (O96028 whole entry): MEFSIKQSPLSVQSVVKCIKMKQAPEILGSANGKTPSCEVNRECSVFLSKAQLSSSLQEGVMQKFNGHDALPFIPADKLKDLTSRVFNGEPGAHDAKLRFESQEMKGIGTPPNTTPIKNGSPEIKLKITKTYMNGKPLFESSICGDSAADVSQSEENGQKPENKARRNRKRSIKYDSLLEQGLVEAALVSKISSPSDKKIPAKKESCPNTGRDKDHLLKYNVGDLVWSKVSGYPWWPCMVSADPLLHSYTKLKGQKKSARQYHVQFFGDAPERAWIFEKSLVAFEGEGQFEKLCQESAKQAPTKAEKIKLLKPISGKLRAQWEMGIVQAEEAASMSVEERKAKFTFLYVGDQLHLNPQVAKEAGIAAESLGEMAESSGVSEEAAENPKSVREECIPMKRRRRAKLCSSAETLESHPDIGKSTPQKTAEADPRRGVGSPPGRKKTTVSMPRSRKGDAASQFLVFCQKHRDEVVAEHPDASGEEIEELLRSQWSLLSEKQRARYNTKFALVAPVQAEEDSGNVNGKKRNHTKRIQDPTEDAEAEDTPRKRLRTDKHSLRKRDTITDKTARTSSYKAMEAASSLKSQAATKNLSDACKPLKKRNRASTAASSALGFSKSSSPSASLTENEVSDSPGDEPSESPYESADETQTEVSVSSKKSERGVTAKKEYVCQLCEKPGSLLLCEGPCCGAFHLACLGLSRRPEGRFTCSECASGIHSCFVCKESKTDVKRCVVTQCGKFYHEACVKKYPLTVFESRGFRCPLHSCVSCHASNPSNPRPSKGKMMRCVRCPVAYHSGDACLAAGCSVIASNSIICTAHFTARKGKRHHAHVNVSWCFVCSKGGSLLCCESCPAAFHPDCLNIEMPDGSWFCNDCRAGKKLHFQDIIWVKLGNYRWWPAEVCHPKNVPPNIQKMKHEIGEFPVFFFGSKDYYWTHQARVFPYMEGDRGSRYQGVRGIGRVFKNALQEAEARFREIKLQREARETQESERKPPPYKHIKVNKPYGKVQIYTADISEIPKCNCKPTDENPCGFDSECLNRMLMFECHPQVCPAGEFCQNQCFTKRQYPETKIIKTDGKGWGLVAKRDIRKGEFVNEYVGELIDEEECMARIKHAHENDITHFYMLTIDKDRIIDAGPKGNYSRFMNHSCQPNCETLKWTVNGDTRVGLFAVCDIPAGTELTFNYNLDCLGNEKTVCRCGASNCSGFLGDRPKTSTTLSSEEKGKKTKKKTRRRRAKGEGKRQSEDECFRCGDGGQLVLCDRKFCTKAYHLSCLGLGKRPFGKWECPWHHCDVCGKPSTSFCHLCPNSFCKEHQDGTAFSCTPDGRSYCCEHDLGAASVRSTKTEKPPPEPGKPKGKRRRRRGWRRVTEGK

Nonstructural protein 1 = Nonstructural protein 1 (Influenza A virus, UniProt Q194T2); type: functional, Influenza A virus (A/California/07/2009(H1N1))
Nonstructural protein 1, sequence (Q194T2 whole entry): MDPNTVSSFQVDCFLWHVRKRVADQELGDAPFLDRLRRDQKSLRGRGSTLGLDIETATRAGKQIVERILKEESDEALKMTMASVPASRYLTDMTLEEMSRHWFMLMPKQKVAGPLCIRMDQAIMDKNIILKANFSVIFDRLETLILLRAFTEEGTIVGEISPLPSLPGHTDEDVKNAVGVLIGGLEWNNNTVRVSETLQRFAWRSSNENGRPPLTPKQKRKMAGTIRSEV

[13] = OVCAR8 cell viability loss – plate reader, dry powder samples, PAX8 project, dose response (AID 743197); type: functional, cell-based; conditions: OVCAR-8
Paired box protein Pax-8 = Paired box protein Pax-8 (Homo sapiens, UniProt Q06710); assay: PAX8 transcriptional activity inhibition in RMG-I – RMG-I cells, luciferase, cherry-pick, dose response (AID 687027); type: functional, cell-based;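 note: luciferase reporter driven by Pax8 target thyroperoxidase promoter measured by SteadyGlo luminescence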
Paired box protein Pax-8, sequence (Q06710 whole entry): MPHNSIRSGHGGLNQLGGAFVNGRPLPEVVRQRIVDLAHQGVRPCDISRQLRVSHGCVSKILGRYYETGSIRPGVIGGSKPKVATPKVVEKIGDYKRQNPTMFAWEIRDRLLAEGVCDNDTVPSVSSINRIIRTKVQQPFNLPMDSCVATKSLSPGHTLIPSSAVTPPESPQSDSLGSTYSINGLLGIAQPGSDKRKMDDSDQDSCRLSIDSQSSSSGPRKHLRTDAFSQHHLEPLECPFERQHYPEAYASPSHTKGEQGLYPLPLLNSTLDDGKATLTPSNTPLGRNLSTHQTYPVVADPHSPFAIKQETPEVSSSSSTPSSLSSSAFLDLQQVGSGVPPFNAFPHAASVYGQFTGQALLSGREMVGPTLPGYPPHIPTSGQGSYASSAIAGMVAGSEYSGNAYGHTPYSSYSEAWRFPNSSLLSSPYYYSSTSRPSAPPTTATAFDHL

[14] = OVCAR-3 cell viability loss – plate reader, dry powder samples, PAX8 inhibitor project, dose response (AID 743044); type: functional, cell-based
[15] = target: T4, Polyadenylate-binding protein 1 (Homo sapiens, UniProt P11940); assay: MLLE binding blockers, Cy5 peptide tracer – biochemical, fluorescence polarization, Cy5-PAM2 peptide, secondary, miRNA deadenylation inhibitor project, dose response (AID 602260); type: functional; conditions: read-out: IC50_Mean
T4 sequence (P11940 whole entry, the tested form may be a part): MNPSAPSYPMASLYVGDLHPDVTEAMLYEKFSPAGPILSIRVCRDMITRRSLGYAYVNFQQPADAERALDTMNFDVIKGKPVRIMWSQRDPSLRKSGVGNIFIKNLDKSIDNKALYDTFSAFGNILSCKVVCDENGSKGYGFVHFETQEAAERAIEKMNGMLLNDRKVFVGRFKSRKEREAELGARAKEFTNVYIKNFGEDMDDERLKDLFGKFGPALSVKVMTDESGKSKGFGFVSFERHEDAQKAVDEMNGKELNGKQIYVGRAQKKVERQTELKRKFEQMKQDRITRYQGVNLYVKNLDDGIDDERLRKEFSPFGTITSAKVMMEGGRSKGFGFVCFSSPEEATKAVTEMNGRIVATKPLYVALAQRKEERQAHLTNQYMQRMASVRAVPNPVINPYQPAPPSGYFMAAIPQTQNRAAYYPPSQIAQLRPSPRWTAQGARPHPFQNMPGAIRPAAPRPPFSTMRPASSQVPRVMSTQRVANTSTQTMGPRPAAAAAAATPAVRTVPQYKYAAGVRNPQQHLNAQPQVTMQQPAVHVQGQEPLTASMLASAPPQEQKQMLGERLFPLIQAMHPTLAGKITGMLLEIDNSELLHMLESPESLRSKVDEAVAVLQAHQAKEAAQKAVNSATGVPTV

[16] = target: T4, Polyadenylate-binding protein 1; assay: MLLE domain peptide-binding blockers, IC50 – biochemical, fluorescence polarization, FITC-PAM2 peptide, dose response (AID 602259); type: functional; conditions: read-out: IC50_Mean
[17] = target: T5, Microphthalmia-associated transcription factor (Homo sapiens, UniProt O75030); assay: reducers of TRPM1 reporter luminescence, concentration series – cell-based, SK-MEL-5, cherry-picked, set 3, MITF inhibitor project, dose response (AID 493073); type: functional;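 note: SK-MEL-5 melanoma cells with luciferase driven by the MITF target TRPM1 promoter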
T5 sequence (O75030 whole entry): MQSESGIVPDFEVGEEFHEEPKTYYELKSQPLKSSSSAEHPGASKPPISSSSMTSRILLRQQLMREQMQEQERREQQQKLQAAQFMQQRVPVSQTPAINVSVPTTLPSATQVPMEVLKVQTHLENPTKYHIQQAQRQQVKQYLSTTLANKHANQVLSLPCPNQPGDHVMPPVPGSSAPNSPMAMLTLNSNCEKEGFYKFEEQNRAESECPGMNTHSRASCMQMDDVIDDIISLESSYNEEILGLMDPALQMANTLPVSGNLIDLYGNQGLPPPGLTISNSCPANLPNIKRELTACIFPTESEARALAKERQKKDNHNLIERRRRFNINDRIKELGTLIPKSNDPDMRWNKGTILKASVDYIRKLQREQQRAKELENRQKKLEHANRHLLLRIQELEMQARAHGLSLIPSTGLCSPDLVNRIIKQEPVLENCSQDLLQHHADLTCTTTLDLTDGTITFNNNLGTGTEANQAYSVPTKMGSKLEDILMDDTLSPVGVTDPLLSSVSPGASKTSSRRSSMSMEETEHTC

## CC(=O)c1ccc(-c2cccs2)s1
[1]
  EC50: > 53 µM (inactive)
Aminopeptidase N
  IC50: 40 µM (active)
[2]
  IC50: > 47.1 µM (inactive)

## CCC(CC)CC1CN2CCc3cc(OC)c(OC)cc3C2CC1(O)CC (stereo unspecified)
Kallikrein-7
  EC50: 8.32 µM (active)
[3]
  AC50: 2 µM (active)
[4]
  AC50: 3.89 µM (active)
[5]
  AC50: > 70 µM (inactive)

## CC1=C(C#N)C(c2cccnc2)C2=C(O)CC(C)(C)CC2=N1 (stereo unspecified)
Kallikrein-7
  EC50: > 69.5 µM (inactive)

## CCCC(=O)Nc1c(-c2ccc(OC)cc2)c(=O)c2ccccc2n1C
Kallikrein-7
  EC50: 49.5 µM (inactive)

## Oc1nc2ccccc2n1C1CCN(C(CCc2ccccc2)c2nnnn2C2CCCC2)CC1 (stereo unspecified)
[6]
  AC50: 18.4 µM (active)
[7]
  AC50: 22.4 µM (active)
[8]
  AC50: 13.3 µM (active)
[9]
  AC50: 14.1 µM (active)
[10]
  AC50: 20.3 µM (active)

## CN(C1=C(N2CCOCC2)C(=O)c2ccccc2C1=O)c1ccccc1
[11]
  IC50: > 122 µM (inactive)
[12]
  AC50: 4.86 µM (active)
Nonstructural protein 1
  IC50: 11.9 µM (active)

## C[C@@H]1CCCCO[C@H](CN(C)Cc2ccc(C(F)(F)F)cc2)[C@H](C)CN([C@H](C)CO)C(=O)c2cc(NS(=O)(=O)c3ccccc3)ccc2O1
[13]
  AC50: > 70 µM (inactive)
Paired box protein Pax-8
  AC50: 6.88 µM (active)

## C[C@H]1CCCCO[C@@H](CN(C)Cc2ccncc2)[C@@H](C)CN([C@@H](C)CO)C(=O)c2cc(NC(=O)Nc3ccc(C(F)(F)F)cc3)ccc2O1
[13]
  AC50: > 70 µM (inactive)
Paired box protein Pax-8
  AC50: 7.3 µM (active)

## CCOC(=O)C1CCN(c2[nH]cnc3c4c(OC)cccc4nc2-3)CC1
Kallikrein-7
  EC50: 8.33 µM (active)

## Cc1cc(N2CCCC2)ccc1NC(=O)COc1cccc(C(F)(F)F)c1
[11]
  IC50: > 122 µM (inactive)

## O=C(Nc1ccccc1)N1CCCCN2[C@H](C1)[C@@H](c1ccc(C#Cc3ccccc3)cc1)[C@@H]2CO
[13]
  AC50: 26 µM (active)
Paired box protein Pax-8
  AC50: 10.5 µM (active)
[14]
  AC50: 26 µM (active)

## CN1C=CC2=C(C#N)C(N)C(C#N)(C#N)[C@H](c3ccccc3)[C@H]2C1 (stereo partly specified)
Kallikrein-7
  EC50: > 69.5 µM (inactive)
[15]
  IC50: > 66 µM (inactive)
[16]
  IC50: 58.9 µM (inactive)

## Cn1nnnc1Sc1ncnc2scc(-c3ccsc3)c12
[6]
  AC50: 8.27 µM (active)
[7]
  AC50: 10.9 µM (active)
[17]
  AC50: 7.95 µM (active)
Paired box protein Pax-8
  AC50: 2.56 µM (active)
[8]
  AC50: 9.63 µM (active)
[9]
  AC50: 9.67 µM (active)
[10]
  AC50: 6.32 µM (active)
